Assay results published in patent US12129246B1, “Hydroquinazoline derivatives for the treatment of a disease or disorder” (Novartis AG, priority 2023, dated 2024).
Where two headings read alike, the source gives them in different places.

Columns and labels:
monkey NPR1 = monkey NPR1 (Macaca fascicularis, UniProt A0A7N9DBT9); experiment: Cellular cGMP production assay, monkey NPR1 expressing CHO-K1 cells (CisBio HTRF); format: cell-based; settings: for Monkey NPR1 Amax (% of ANP): maximum cGMP production as percentage of the maximum cGMP produced with ANP
In short: (§1)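 Read-out was HTRF (excitation 317 nm, emission 665 nm), with cGMP quantified as Delta F against a calibrator standard curve. Beforehand, cells were exposed for 30 min at 37 °C to compound (30 μM top, twelve 3-fold steps) in IBMX-containing PBS/BSA buffer, then lysed.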

human NPR1 = molecular target: T1, human NPR1 (Homo sapiens, UniProt P16066); experiment: Cellular cGMP production assay, human NPR1 expressing CHO-K1 cells (CisBio HTRF); format: cell-based; settings: for AC50: cGMP production, 30 min at 37° C., 12-point dose-response from 30 μM; for Human NPR1 Amax (% of ANP): maximum cGMP production as percentage of the maximum cGMP produced with ANP
T1 construct: host or cells: CHO-K1
T1 sequence (P16066 33-1061): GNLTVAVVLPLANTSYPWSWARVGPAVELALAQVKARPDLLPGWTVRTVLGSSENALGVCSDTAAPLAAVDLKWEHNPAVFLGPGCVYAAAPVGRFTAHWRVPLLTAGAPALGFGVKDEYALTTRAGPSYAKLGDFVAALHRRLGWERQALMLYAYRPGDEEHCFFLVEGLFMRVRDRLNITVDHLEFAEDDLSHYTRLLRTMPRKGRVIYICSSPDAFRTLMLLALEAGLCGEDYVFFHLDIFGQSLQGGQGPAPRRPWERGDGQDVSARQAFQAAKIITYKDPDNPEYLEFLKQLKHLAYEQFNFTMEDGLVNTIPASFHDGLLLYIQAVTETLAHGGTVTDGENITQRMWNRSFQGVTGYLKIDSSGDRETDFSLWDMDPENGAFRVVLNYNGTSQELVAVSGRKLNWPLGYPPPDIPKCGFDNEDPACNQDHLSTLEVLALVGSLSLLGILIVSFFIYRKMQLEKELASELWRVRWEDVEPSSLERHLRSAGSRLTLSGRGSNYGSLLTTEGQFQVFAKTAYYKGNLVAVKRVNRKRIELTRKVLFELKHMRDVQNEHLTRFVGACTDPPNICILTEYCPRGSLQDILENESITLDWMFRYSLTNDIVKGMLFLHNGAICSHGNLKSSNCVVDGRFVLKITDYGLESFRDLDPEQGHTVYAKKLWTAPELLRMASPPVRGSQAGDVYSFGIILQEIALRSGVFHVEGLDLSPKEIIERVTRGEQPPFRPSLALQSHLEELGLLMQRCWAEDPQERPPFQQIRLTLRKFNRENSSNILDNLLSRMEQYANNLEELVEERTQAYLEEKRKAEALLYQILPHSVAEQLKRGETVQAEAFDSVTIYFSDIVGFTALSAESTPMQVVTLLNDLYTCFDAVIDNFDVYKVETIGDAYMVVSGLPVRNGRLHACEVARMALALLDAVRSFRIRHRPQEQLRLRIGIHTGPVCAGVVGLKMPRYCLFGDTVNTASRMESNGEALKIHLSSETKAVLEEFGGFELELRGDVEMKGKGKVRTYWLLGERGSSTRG
In short: as §1

[1] = cGMP production, monkey NPR1 CHO-K1 cells, 30 min at 37° C., 12-point dose-response from 30 μM, read-out: Monkey NPR1 AC50

monkey NPR1, sequence (A0A7N9DBT9 entry or part of it): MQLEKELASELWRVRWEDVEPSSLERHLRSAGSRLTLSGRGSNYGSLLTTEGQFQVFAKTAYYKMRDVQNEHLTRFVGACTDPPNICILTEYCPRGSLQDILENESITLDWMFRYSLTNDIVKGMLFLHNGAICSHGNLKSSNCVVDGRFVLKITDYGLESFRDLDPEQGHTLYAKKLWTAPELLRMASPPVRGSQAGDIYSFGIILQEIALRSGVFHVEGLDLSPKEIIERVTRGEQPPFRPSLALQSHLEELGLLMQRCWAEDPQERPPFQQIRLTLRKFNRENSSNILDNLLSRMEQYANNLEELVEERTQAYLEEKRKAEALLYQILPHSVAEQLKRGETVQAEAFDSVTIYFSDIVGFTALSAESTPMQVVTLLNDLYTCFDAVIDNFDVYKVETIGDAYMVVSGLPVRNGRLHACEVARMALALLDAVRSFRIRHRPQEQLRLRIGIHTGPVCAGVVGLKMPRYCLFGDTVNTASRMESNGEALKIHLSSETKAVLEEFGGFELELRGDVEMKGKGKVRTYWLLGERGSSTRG

Row | Structure (SMILES) | AC50 (monkey NPR1; [1]) | Monkey NPR1 Amax (% of ANP) (monkey NPR1; monkey NPR1 CHO-K1 cells) | AC50 (human NPR1) | Human NPR1 Amax (% of ANP) (human NPR1) | AC50 (monkey NPR1)
1 | CC[C@H]([C@H]1CC[C@H](C(=O)O)CC1)N(C)c1nc2c(c(N[C@@H](CN3CCCC(C)(F)C3)c3cnn(C)c3)n1)C[C@H](c1ccccc1)CC2 (stereo partly drawn) [Compound 144, (1R,4r)-4-((1R)-1-(((6R)-4-(((1R)-2-(3-fluoro-3-methylpiperidin-1-yl)-1-(1-methyl-1H-pyrazol-4-yl)ethyl)amino)-6-phenyl-5,6,7,8-tetrahydroquinazolin-2-yl)(methyl)amino)propyl)cyclohexane-1-carboxylic acid] | 0.873 µM | 152.392 % of ANP | 0.985 µM | 114.314 % of ANP | –
2 | CC[C@H]([C@H]1CC[C@H](C(=O)O)CC1)N(C)c1nc2c(c(N[C@@H](CN3CCC(C)CC3)c3cnn(C)c3)n1)C[C@H](c1ccccc1)CC2 [Compound 145, (1R,4r)-4-((R)-1-(methyl((R)-4-(((R)-1-(1-methyl-1H-pyrazol-4-yl)-2-(4-methylpiperidin-1-yl)ethyl)amino)-6-phenyl-5,6,7,8-tetrahydroquinazolin-2-yl)amino)propyl)cyclohexane-1-carboxylic acid] | 0.9 µM | 103.150 % of ANP | 1.05 µM | 97.636 % of ANP | –
3 | CC[C@H]([C@H]1CC[C@H](C(=O)O)CC1)N(C)c1nc2c(c(N[C@@H](CN3CCCC3)c3ccccc3)n1)C[C@H](c1ccccc1)CC2 [Compound 146, (1R,4r)-4-((R)-1-(methyl((R)-6-phenyl-4-(((R)-1-phenyl-2-(pyrrolidin-1-yl)ethyl)amino)-5,6,7,8-tetrahydroquinazolin-2-yl)amino)propyl)cyclohexane-1-carboxylic acid] | 0.702 µM | 96.864 % of ANP | 1.07 µM | 104.657 % of ANP | –
4 | CC[C@H]([C@H]1CC[C@H](C(=O)O)CC1)N(C)c1nc2c(c(N[C@@H](CN3CCCCC3)c3cnn(CC4CC4)c3)n1)C[C@H](c1ccccc1)CC2 [Compound 147, (1R,4r)-4-((R)-1-(((R)-4-(((R)-1-(1-(cyclopropylmethyl)-1H-pyrazol-4-yl)-2-(piperidin-1-yl)ethyl)amino)-6-phenyl-5,6,7,8-tetrahydroquinazolin-2-yl)(methyl)amino)propyl)cyclohexane-1-carboxylic acid] | 0.671 µM | 101.537 % of ANP | 1.08 µM | 97.612 % of ANP | –
5 | CC[C@H]([C@H]1CC[C@H](C(=O)O)CC1)N(C)c1nc2c(c(N[C@@H](CN3CCCCC3)c3ccc(=O)n(CC)c3)n1)C[C@H](c1ccccc1)CC2 [Compound 148, (1R,4r)-4-((R)-1-(((R)-4-(((R)-1-(1-ethyl-6-oxo-1,6-dihydropyridin-3-yl)-2-(piperidin-1-yl)ethyl)amino)-6-phenyl-5,6,7,8-tetrahydroquinazolin-2-yl)(methyl)amino)propyl)cyclohexane-1-carboxylic acid] | 0.834 µM | 102.851 % of ANP | 1.08 µM | 93.518 % of ANP | –
6 | CC[C@H]([C@H]1CC[C@H](C(=O)O)CC1)N(C)c1nc2c(c(N[C@@H](CN3CCCC[C@@H]3CO)c3cnn(C)c3)n1)C[C@H](c1ccccc1)CC2 [Compound 149, (1R,4r)-4-((R)-1-(((R)-4-(((R)-2-((R)-2-(hydroxymethyl)piperidin-1-yl)-1-(1-methyl-1H-pyrazol-4-yl)ethyl)amino)-6-phenyl-5,6,7,8-tetrahydroquinazolin-2-yl)(methyl)amino)propyl)cyclohexane-1-carboxylic acid] | 1.02 µM | 164.167 % of ANP | 1.14 µM | 130.209 % of ANP | –
7 | CC[C@H]([C@H]1CC[C@H](C(=O)O)CC1)N(C)c1nc2c(c(N[C@@H](CN3CCCC(F)(F)CC3)c3cnn(C)c3)n1)C[C@H](c1ccccc1)CC2 [Compound 150, (1R,4r)-4-((R)-1-(((R)-4-(((R)-2-(4,4-difluoroazepan-1-yl)-1-(1-methyl-1H-pyrazol-4-yl)ethyl)amino)-6-phenyl-5,6,7,8-tetrahydroquinazolin-2-yl)(methyl)amino)propyl)cyclohexane-1-carboxylic acid] | 1.04 µM | 156.200 % of ANP | 1.16 µM | 130.487 % of ANP | –
8 | CC[C@@H](Nc1nc2c(c(N[C@@H](CN3CCC(OC)CC3)c3cnn(C)c3)n1)C[C@H](c1ccccc1)CC2)[C@H]1CC[C@H](C(=O)O)CC1 [Compound 151, (1R,4r)-4-((R)-1-(((R)-4-(((R)-2-(4-methoxypiperidin-1-yl)-1-(1-methyl-1H-pyrazol-4-yl)ethyl)amino)-6-phenyl-5,6,7,8-tetrahydroquinazolin-2-yl)amino)propyl)cyclohexane-1-carboxylic acid] | 1.33 µM | 96.950 % of ANP | 1.18 µM | 88.350 % of ANP | –
9 | CC[C@H]([C@H]1CC[C@H](C(=O)O)CC1)N(C)c1nc2c(c(N[C@@H](CN3CCC[C@H](C)C3)c3cnn(C)c3)n1)CN(C1CCCCC1)CC2 [Compound 152, (1R,4r)-4-((R)-1-((6-cyclohexyl-4-(((R)-1-(1-methyl-1H-pyrazol-4-yl)-2-((S)-3-methylpiperidin-1-yl)ethyl)amino)-5,6,7,8-tetrahydropyrido[4,3-d]pyrimidin-2-yl)(methyl)amino)propyl)cyclohexane-1-carboxylic acid] | – | 106.260 % of ANP | 1.19 µM | 104.537 % of ANP | 0.6 µM
10 | CCn1cc([C@H](CN2C3CCCC2CCC3)Nc2nc(N[C@H](C)c3ccc(C(=O)O)cc3)nc3c2C[C@H](c2cccc(F)c2)CC3)cn1 [Compound 153, 4-((R)-1-(((R)-4-(((R)-2-((1S,5S)-9-azabicyclo[3.3.1]nonan-9-yl)-1-(1-ethyl-1H-pyrazol-4-yl)ethyl)amino)-6-(3-fluorophenyl)-5,6,7,8-tetrahydroquinazolin-2-yl)amino)ethyl)benzoic acid] | – | 98.372 % of ANP | 1.2 µM | 93.868 % of ANP | 0.753 µM
11 | CC[C@H]([C@H]1CC[C@H](C(=O)O)CC1)N(C)c1nc2c(c(N[C@@H](CN3CCC(O)CC3)c3cnn(CC)c3)n1)C[C@H](c1ccccc1)CC2 [Compound 154, (1R,4r)-4-((R)-1-(((R)-4-(((R)-1-(1-ethyl-1H-pyrazol-4-yl)-2-(4-hydroxypiperidin-1-yl)ethyl)amino)-6-phenyl-5,6,7,8-tetrahydroquinazolin-2-yl)(methyl)amino)propyl)cyclohexane-1-carboxylic acid] | 0.802 µM | 97.456 % of ANP | 1.24 µM | 105.125 % of ANP | –
12 | CC[C@@H](N(C)c1nc2c(c(N[C@@H](CN3CCC[C@H](C)C3)c3ccnn3C)n1)C[C@H](c1cccc(F)c1)CC2)C12CC(C(=O)O)(C1)C2 [Compound 155, 3-((R)-1-(((R)-6-(3-fluorophenyl)-4-(((S)-1-(1-methyl-1H-pyrazol-5-yl)-2-((S)-3-methylpiperidin-1-yl)ethyl)amino)-5,6,7,8-tetrahydroquinazolin-2-yl)(methyl)amino)propyl)bicyclo[1.1.1]pentane-1-carboxylic acid] | 0.648 µM | 95.840 % of ANP | 1.29 µM | 97.313 % of ANP | –
